Assay results as given in patent publication US20110044938A1 (NYCOMED GMBH, priority 2006, published 2011).

Key:
[1] = tested on: subclones of RKO colon adenocarcinoma cells (RKOp27 or RKOp21) arrested by Ponasterone A; assay: Alamar Blue cell viability assay, cell cycle specific mode of action: cells arrested by ectopic p27Kip1 induced by Ponasterone A versus proliferating cells; assay type: cell-based; conditions: Homo sapiens, RKO p27 induced (arrested) cells, 10 μM Ponasterone A, 72 hours, value = class bound given in Table A, read-out: −logIC50 RKO p27 induced (arrested) (converted)
Description: To determine the cell cycle specific mode of action, subclones of RKO colon adenocarcinoma cells (RKOp27 or RKOp21 as described by Schmidt et al. in Oncogene 19, 2423-2429; 2000) are seeded into 96 well flat bottom plates at a density of 15000 cells per well in a volume of 50 μl per well in DMEM growth medium with 10% FCS containing 10 μM Ponasterone A. 24 hours after seeding the 50 μl each of the compound dilutions in DMEM medium are added into each well of the 96 Well plate. Each compound dilution is tested as quadruplicates. Wells containing untreated control cells are filled with 50 μl DMEM medium containing 1% DMSO. The cells are then incubated with the substances for 72 hours at 37° C. in a humidified athmosphere containing 5% carbon dioxide. To determine the viability of the cells, 10 μl of an Alamar Blue solution (Biosource) are added and the fluorescence was measured at an extinction of 544 nm and an emission of 590 nm. For the calculation of the cell viability the emission value from untreated cells is set as 100% viability and the emission rates of treated cells are set in relation to the values of untreated cells. Viabilities are expressed as % values. Viability is compared of proliferating cells grown in the absence of the inducer Ponasterone A, versus viability of cells arrested by the expression of ectopic p27Kip1 induced by Ponasterone A.
(§1) Representative −log IC50 [mol/l] values for anti-proliferation/cytotoxicity determined in the mentioned assays follow from the following table A, in which the numbers of the compound correspond to the numbers of the examples.

[2] = tested on: RKO (RKOp27) human colon adenocarcinoma cells; assay: Alamar Blue cell viability assay, anti-proliferative/cytotoxic activity on proliferating RKO subclones; assay type: cell-based; conditions: RKOp27, 72 h, RKO p27 uninduced (proliferating) cells, value = class bound given in Table A, read-out: −logIC50 RKO p27 uninduced (proliferating) (converted)
Description: The anti-proliferative/cytotoxic activity of the compounds described herein, can be tested on subclones of RKO (RKOp27) human colon adenocarcinoma cells (Schmidt et al., Oncogene 19, 2423-2429; 2000) using the Alamar Blue cell viability assay (described in O'Brien et al. Eur J Biochem 267, 5421-5426, 2000). The compounds are dissolved as 20 mM solutions in dimethylsulfoxide (DMSO) and subsequently diluted in semi-logarithmic steps. DMSO dilutions are further diluted 1:100 into Dulbecco's modified Eagle's medium (DMEM) containing 10% fetal calf serum to a final concentration twice as much as the final concentration in the test. RKO subclones are seeded into 96 well flat bottom plates at a density of 5000 cells per well in a volume of 50 μl per well. 24 hours after seeding the 50 μl each of the compound dilutions in DMEM medium are added into each well of the 96 Well plate. Each compound dilution is tested as quadruplicates. Wells containing untreated control cells are filled with 50 μl DMEM medium containing 1% DMSO. The cells are then incubated with the substances for 72 hours at 37° C. in a hunified atmosphere containing 5% carbon dioxide. To determine the viability of the cells, 10 μl of an Alamar Blue solution (Biosource) are added and the fluorescence is measured at an extinction of 544 nm and an emission of 590 nm. For the calculation of the cell viability the emission value from untreated cells is set as 100% viability and the emission rates of treated cells are set in relation to the values of untreated cells. Viabilities are expressed as % values.
The corresponding IC50 values of the compounds for anti-proliferative/cytotoxic activity are determined from the concentration-effect curves.
as §1

Structure (SMILES) | IC50 [1] | IC50 [2]
CCOc1ccccc1/C=C/C(=O)Nc1sc2c(c1C#N)CCC(OC(=O)NCCOC)C2 (centres unmarked) [Example 12, (2-Methoxy-ethyl)-carbamic acid 3-cyano-2-[(E)-3-(2-ethoxy-phenyl)-allanoylamino]-4,5,6,7-tetrahydro-benzo[b]thiophen-6-yl ester] | ≥ 50.1 µM | ≤ 501 nM
CCOc1ccccc1/C=C/C(=O)Nc1sc2c(c1C#N)CCC(OC(=O)OCCN1CCOCC1)C2 (centres unmarked) [Example 13, Carbonic acid 3-cyano-2-[(E)-3-(2-ethoxy-phenyl)-allanoylamino]-4,5,6,7-tetrahydro-benzo[b]thiophen-6-yl ester 2-morpholin-4-yl-ethyl ester] | ≥ 100 µM | 501 to 2000 nM
CCOc1ccccc1/C=C/C(=O)Nc1sc2c(c1C#N)CCC(OC(=O)NCc1cccnc1)C2 (centres unmarked) [Example 14, Pyridin-3-ylmethyl-carbamic acid 3-cyano-2-[(E)-3-(2-ethoxy-phenyl)-allanoylamino]-4,5,6,7-tetrahydro-benzo[b]thiophen-6-yl ester] | ≥ 50.1 µM | 501 to 2000 nM
CCOc1ccccc1/C=C/C(=O)Nc1sc2c(c1C#N)CCC(COC(=O)NCc1ccccn1)C2 (centres unmarked) [Example 15, Pyridin-2-ylmethyl-carbamic acid 3-cyano-2-[(E)-3-(2-ethoxy-phenyl)-allanoylamino]-4,5,6,7-tetrahydro-benzo[b]thiophen-6-ylmethyl ester] | ≥ 100 µM | 501 to 2000 nM
CNC(=O)OCC1CCc2c(sc(NC(=O)/C=C/c3cccnc3)c2C#N)C1 (centres unmarked) [Example 16, Methyl-carbamic acid 3-cyano-2-((E)-3-pyridin-3-yl-allanoylamino)-4,5,6,7-tetrahydro-benzo[b]thiophen-6-ylmethyl ester] | ≥ 100 µM | ≤ 501 nM
CNC(=O)OC[C@H]1CCc2c(sc(NC(=O)/C=C/c3cccnc3)c2C#N)C1 [Example 16a, (S)-Methyl-carbamic acid 3-cyano-2-((E)-3-pyridin-3-yl-allanoylamino)-4,5,6,7-tetrahydro-benzo[b]thiophen-6-ylmethyl ester] | ≥ 100 µM | ≤ 501 nM
CNC(=O)OC[C@@H]1CCc2c(sc(NC(=O)/C=C/c3cccnc3)c2C#N)C1 [Example 16b, Methyl-carbarnic acid (R)-3-cyano-2-((E)-3-pyridin-3-yl-allanoylamino)-4,5,6,7-tetrahydro-benzo[b]thiophen-6-ylmethyl ester] | ≥ 100 µM | 501 to 2000 nM
COCCNC(=O)OC1CCc2c(sc(NC(=O)/C=C/c3cccnc3)c2C#N)C1 (centres unmarked) [Example 18, (2-Methoxy-ethyl)-carbamic acid 3-cyano-2-((E)-3-pyridin-3-yl-allanoylamino)-4,5,6,7-tetrahydro-benzo[b]thiophen-6-yl ester] | ≥ 100 µM | 501 to 2000 nM
N#Cc1c(NC(=O)/C=C/c2cccnc2)sc2c1CCC(COC(=O)NCCc1cccnc1)C2 (centres unmarked) [Example 19, (2-Pyridin-3-yl-ethyl)-carbamic acid 3-cyano-2-((E)-3-pyridin-3-yl-allanoylamino)-4,5,6,7-tetrahydro-benzo[b]thiophen-6-ylmethyl ester] | ≥ 100 µM | 501 to 2000 nM
CNC(=O)OC1CCc2c(sc(NC(=O)/C=C/c3cccnc3)c2C#N)C1 (centres unmarked) [Example 20, Methyl-carbamic acid 3-cyano-2-((E)-3-pyridin-3-yl-allanoylamino)-4,5,6,7-tetrahydro-benzo[b]thiophen-6-yl ester] | ≥ 100 µM | ≤ 501 nM
N#Cc1c(NC(=O)/C=C/c2cccnc2)sc2c1CCC(OC(=O)NC1CC1)C2 (centres unmarked) [Example 21, Cyclopropyl-carbamic acid 3-cyano-2-((E)-3-pyridin-3-yl-allanoylamino)-4,5,6,7-tetrahydro-benzo[b]thiophen-6-yl ester] | ≥ 100 µM | ≤ 501 nM
N#Cc1c(NC(=O)/C=C/c2cccnc2)sc2c1CCC(OC(=O)NCC1CCOCC1)C2 (centres unmarked) [Example 22, (Tetrahydro-pyran-4-ylmethyl)-carbamic acid 3-cyano-2-((E)-3-pyridin-3-yl-allanoylamino)-4,5,6,7-tetrahydro-benzo[b]thiophen-6-yl ester] | ≥ 100 µM | 501 to 2000 nM
N#Cc1c(NC(=O)/C=C/c2cccnc2)sc2c1CCC(OC(=O)NCCO)C2 (centres unmarked) [Example 23, (2-Hydroxy-ethyl)-carbamic acid 3-cyano-2-((E)-3-pyridin-3-yl-allanoylamino)-4,5,6,7-tetrahydro-benzo[b]thiophen-6-yl ester] | ≥ 100 µM | 501 to 2000 nM
N#Cc1c(NC(=O)/C=C/c2cccnc2)sc2c1CCC(OC(=O)NC1CCOCC1)C2 (centres unmarked) [Example 26, (Tetrahydro-pyran-4-yl)-carbamic acid 3-cyano-2-((E)-3-pyridin-3-yl-allanoylamino)-4,5,6,7-tetrahydro-benzo[b]thiophen-6-yl ester] | ≥ 100 µM | 501 to 2000 nM
COCCOC(=O)OC1CCc2c(sc(NC(=O)/C=C/c3cccnc3)c2C#N)C1 (centres unmarked) [Example 27, Carbonic acid 3-cyano-2-((E)-3-pyridin-3-yl-allanoylamino)-4,5,6,7-tetrahydro-benzo[b]thiophen-6-yl ester 2-methoxy-ethyl ester] | ≥ 100 µM | ≤ 501 nM
CCOc1ccccc1/C=C/C(=O)Nc1sc2c(c1C#N)CCC(COC(=O)NCCO)C2 (centres unmarked) [Example 28, (2-Hydroxy-ethyl)-carbamic acid 3-cyano-2-[(E)-3-(2-ethoxy-phenyl)-allanoylamino]-4,5,6,7-tetrahydro-benzo[b]thiophen-6-ylmethyl ester] | ≥ 100 µM | 501 to 2000 nM
N#Cc1c(NC(=O)/C=C/c2cccnc2)sc2c1CCC(COC(=O)NCCO)C2 (centres unmarked) [Example 29, (2-Hydroxy-ethyl)-carbamic acid 3-cyano-2-((E)-3-pyridin-3-yl-allanoylamino)-4,5,6,7-tetrahydro-benzo[b]thiophen-6-ylmethyl ester] | ≥ 100 µM | 501 to 2000 nM
N#Cc1c(NC(=O)/C=C/c2cccnc2)sc2c1CCC(COC(=O)NCCn1ccnc1)C2 (centres unmarked) [Example 30, (2-Imidazol-1-yl-ethyl)-carbamic acid-3-cyano-2-((E)-3-pyridin-3-yl-allanoylamino)-4,5,6,7-tetrahydro-benzo[b]thiophen-6-ylmethyl ester] | ≥ 100 µM | 501 to 2000 nM
CCOc1ccccc1/C=C/C(=O)Nc1sc2c(c1C#N)CCC(OC(=O)NCCn1ccnc1)C2 (centres unmarked) [Example 31, (2-Imidazol-1-yl-ethyl)-carbamic acid-3-cyano-2-[(E)-3-(2-ethoxy-phenyl)-allanoylamino]-4,5,6,7-tetrahydro-benzo[b]thiophen-6-yl ester] | ≥ 10 µM | ≤ 501 nM
CCOc1ccccc1/C=C/C(=O)Nc1sc2c(c1C#N)CCC(COC(=O)NCCn1ccnc1)C2 (centres unmarked) [Example 32, (2-Imidazol-1-yl-ethyl)-carbamic acid 3-cyano-2-[(E)-3-(2-ethoxy-phenyl)-allanoylamino]-4,5,6,7-tetrahydro-benzo[b]thiophen-6-ylmethyl ester] | ≥ 100 µM | 501 to 2000 nM
N#Cc1c(NC(=O)/C=C/c2cccnc2)sc2c1CCC(OC(=O)NCc1cccnc1)C2 (centres unmarked) [Example 35, Pyridin-3-ylmethyl-carbamic acid 3-cyano-2-((E)-3-pyridin-3-yl-allanoylamino)-4,5,6,7-tetrahydro-benzo[b]thiophen-6-yl ester] | ≥ 100 µM | 501 to 2000 nM
N#Cc1c(NC(=O)/C=C/c2cccnc2)sc2c1CCC(OC(=O)NCCc1cccnc1)C2 (centres unmarked) [Example 36, (2-Pyridin-3-yl-ethyl)-carbamic acid 3-cyano-2-((E)-3-pyridin-3-yl-allanoylamino)-4,5,6,7-tetrahydro-benzo[b]thiophen-6-yl ester] | ≥ 50.1 µM | 501 to 2000 nM
